Test results published in patent publication US12358948B2, “Neurotensinergic agonists and methods of using same preventing or treating pain” (priority 2019, dated 2025).
Several values for one entry are separate records, joined by “and”; a condition that tells them apart may be missing. Identical values can stand only once. Entries after “also recorded” stand apart in the source; their conditions may differ. Where a SMILES comes first, the peptide text is derived from it. Bridges are numbered along the chain shown (N, C = ends). [ ]: non-standard residue; d: D form. Ala(cPent) = N[C@@H](CC1CCCC1)C(=O)O; AllylGly = C=CC[C@H](N)C(=O)O

How the values were obtained:
[1] = Body temperature (hypothermia) after intrathecal injection; assay type: in vivo, rat; conditions: vs saline
Protocol: Body temperature was measured using a thermistor probe inserted into the rectum of the rats. Animals were individually acclimatized to manipulations and thermistor probe 5 min/day for three consecutive days. […] Changes in body temperature (Δ body temperature) were determined from baseline for each time and each animal. Data represents the mean±SEM of 5-6 rats for each condition.
(§1) Data are expressed as mean±standard errors of the mean (SEM). All graphs and statistical analysis were performed using GraphPad Prism™ 7 (GraphPad software, La Jolla, CA, USA). […] A two-way ANOVA followed by Tukey's multiple comparisons test was used to determine the significant differences in changes in body temperature between different concentrations of compounds and saline (FIG. 9). The % MPE for the tail-flick test and the areas under the curve for the formalin test were analyzed using a one-way ANOVA followed by a Dunnett's multiple comparisons test to compare different concentrations of compounds and saline treatment (FIGS. 2B, 4B, 7A-B and 8B-D). […] Nonlinear regression using three parameters was performed for % of ileum relaxation and IC50 value was obtained from the resulting dose-response curve (FIG. 11). A difference in response was considered significant with p-values *p<0.05, **p<0.01, ***p<0.001 and **p<0.0001.

[2] = system: ileum; test: Ileum relaxation assay ex vivo; set-up: species or system rat; conditions: 10^−11 to 10^−5 M, after contraction with carbachol
Protocol: The functional ileum bioassay was carried out as described in detail elsewhere. (Van der Poorten, O., Van Den Hauwe, R., Eiselt, E., Betti, C., Guillemyn, K., Chung, N. N., Hall, F., Bihel, F., Schiller, P. W., Tourwé, D., Sarret, P., Gendron, L, . . . Ballet, S. (2017). X-Space Screening of Dermorphin-Based Tetrapeptides through Use of Constrained Arylazepinone and Quinolinone Scaffolds. ACS medicinal chemistry letters, 8(11), 1177-1182) Briefly, rats were euthanized, and 2 cm ileum segments were dissected out before removal of extraneous fat and connective tissue.
The ileum was then mounted under 0.5-g tension in a 10 mL organ bath containing warmed (37° C.) and oxygenated (95% O2, 5% CO2) Krebs solution (6.9 g/L NaCl, 0.145 g/L MgSO4, 2.1 g/L NaHCO3, 0.35 g/L KCl, 0.165 g/L KH2PO4, 1.98 g/L dextrose and 0.28 g/L CaCl2)). […] Contractions of the muscle were recorded via an isometric force transducer (159901A, Radnoti, Monrovia, CA, USA). […]
Each concentration of the compounds tested were followed by 2×15-min washout periods in Krebs solution to allow full relaxation. Dose-response curves were obtained with NT (8-13) (10^−11 to 10^−6) as standard for each ileum and for compound 34(10^−11 to 10^−5) and IC50 values were determined. […]
Data are expressed as mean±standard errors of the mean (SEM). […]

[3] = system: Sprague-Dawley rats; test: Tail-flick test (acute thermal pain), intrathecal injection; assay type: in vivo, rat; conditions: for ED50, tail-flick test: from % MPE at 10 min post-injection, rat; for tail-flick latency time compared to saline injection: i.t. 10 to 150 μg/kg (compound 34) or 3 to 61 nmol/kg (compound 67); for % MPE: 10 min post-injection
Protocol: Rats were housed two per cage on Aspen shavings in a quiet room and kept on a 12 h light/dark cycle and allowed ad libitum access to food and water. The experimental procedures in this study were approved by the Animal Care Committee of Université de Sherbrooke and were in accordance with policies and directives of the Canadian Council on Animal Care.
Tail-flick test: The tail flick test was used as outcome measures heat-induced pain in animals and as indicators of a compound's analgesic efficacy.
Acute pain was assessed using the Tail flick test (Tail Flick Analgesia meterV2.00, Colombus Instruments, Columbus, Ohio, USA). Tail flick test measures sensitivity to a high-intensity light beam focused on the rat tail. The tail flick apparatus was set at a light intensity of 6 and a cutoff of 10 seconds. The latency to flick the tail out of the path of the light beam corresponds to the measure of pain sensitivity or analgesia.
Before testing, animals were individually acclimatized to manipulations and behavioral apparatus 5 min/day for three consecutive days. On the test day, latencies baseline measures were taken before drug injection to provide a mean baseline. The compounds were diluted in 0.9% saline at the desired dose. The effects of the compound or saline on thermal nociception were assessed every 10 min for up to 60 min following i.t. administration.
Moreover, tail flick latencies were converted into the percent maximal possible effect (% MPE) at the time of maximal peak of analgesia. % MPE were calculated according to the following formula: % MPE=[(Test latency)−(Saline latency)]/[(Cutoff)−(Saline latency)]×100. Data are expressed as mean±SEM of 5-8 animals for each dose.
Then, ED50 values were determined using the dose-response stimulation log(agonist) vs response (four parameters).
as §1

SMILES: CC(C)C[C@H](NC(=O)[C@H](Cc1ccc(O)cc1)NC(=O)[C@@H]1CC=CC[C@H](N)C(=O)N[C@@H](CCCCN)C(=O)N[C@@H](CCCCN)C(=O)N1)C(=O)O [compound 34, c[G(All)KKG(All)]YL] (H-[AllylGly]KK[AllylGly]YL-OH; staple 1-4)
- Hypothermia (i.t.) ([1]; 150 μg/kg i.t.): no significant variation in body temperature; also recorded: No hypothermia
- Ileum relaxation [2]: doesn't impact gut motility; also recorded: No ileum
- tail-flick latency at the lowest dose ([3]; 10 μg/kg i.t. (data not shown)): no apparent increase in latency
- ED50, tail-flick test ([3]; i.t.): 48.52 μg/kg and 61 nmol/kg
- tail-flick latency time compared to saline injection [3]: significantly increased
- % MPE ([3]; tail-flick, two higher doses i.t.): at least 98%
- dose at which analgesic effect / MPE reached a plateau ([3]; tail-flick, i.t.): around 90 μg/kg

SMILES: NCCCC[C@@H]1NC(=O)[C@H](CCCCN)NC(=O)[C@@H](N)CC=CC[C@@H](C(=O)N[C@@H](Cc2ccc(O)cc2)C(=O)N[C@@H](CC2CCCC2)C(=O)O)NC1=O [compound 67, c[G(All)KKG(All)]YA(cyclopentyl)] (H-[AllylGly]KK[AllylGly]Y[Ala(cPent)]-OH; staple 1-4)
- Hypothermia (i.t.) ([1]; 209 nmol/kg i.t.): no significant variation in body temperature; also recorded: No hypothermia
- latency of the tail-flick reflex compared to baseline ([3]; 61 nmol/kg i.t.): sustainably increased latency
- tail-flick latency at low doses ([3]; doses inferior to 3 nmol/kg i.t. (data not shown)): no apparent increase in latency
- antinociceptive effect compared with the other tested compounds ([3]; equimolar doses (61 nmol/kg i.t.)): highest antinociceptive effect
- ED50, tail-flick test ([3]; i.t.): 8.14 nmol/kg
- tail-flick latency time compared to saline injection [3]: significantly increased
- MPE plateau at the tested doses ([3]; tail-flick, 3 to 61 nmol/kg i.t.): did not reach a plateau
- % MPE ([3]; tail-flick, highest dose i.t.): at least 91%
